The values below come from patent publication US20220378707A1, “1-(((2S,3S,4S)-3-ETHYL-4-FLUORO-5-OXOPYRROLIDIN-2-YL)METHOXY)-7-METHOXYISOQUINOLINE-6-CARBOXAMIDE COMBINATIONS AND ORAL DOSAGE FORMS” (Pfizer Inc., priority 2019, published 2022).

Entries after “also recorded” stand apart in the source; their conditions may differ.

For the assay, the system named is PBMC and HUVEC+LPS (TLR4 ligand). Kind of assay: BioMAP LPS system. The format is cell-based, human. As to conditions: monocyte-driven Th1 inflammation; for Inhibition of biomarker readouts in the LPS system: concentrations of FIGS. 12-14; for Increased biomarker readouts in the LPS system: tofacitinib 37-1000 nM. From the text:
The BioMAP systems consist of human primary cell-based systems designed to model different aspects of the human body in an in vitro format. The 12 systems tested characterized the test compounds across a broad set of systems modeling various human disease states. BioMAP systems were constructed with one or more primary cell types from healthy human donors, with stimuli (such as cytokines or growth factors) added to capture relevant signaling networks that naturally occur in human tissue or pathological conditions. Vascular biology was modeled in both a Th1 (3C system) and a Th2 (4H system) inflammatory environment, as well as in a Th1 inflammatory state specific to arterial smooth muscle cells (CASM3C system). Additional systems recapitulated aspects of the systemic immune response that included monocyte-driven Th1 inflammation (LPS system) or T cell stimulation (SAg system), chronic Th1 inflammation driven by macrophage activation (IMphg system) and the T cell-dependent activation of B cells that occurs in germinal centers (BT system). The BE3C system (Th1) and the BF4T system (Th2) represented airway inflammation of the lung, while the MyoF system modeled myofibroblast-lung tissue remodeling. Lastly, skin biology was addressed in the KF3CT system modeled Th1 cutaneous inflammation and the HDF3CGF system modeled wound healing.
All cells were from a pool of multiple donors (n=2-6), commercially purchased and handled according to the recommendations of the manufacturers. Human blood derived CD14+ monocytes were differentiated into macrophages in vitro before being added to the IMphg system. Abbreviations were used as follows: human umbilical vein endothelial cells (HUVEC), peripheral blood mononuclear cells (PBMC), human neonatal dermal fibroblasts (HDFn), B cell receptor (BCR), T cell receptor (TCR) and toll-like receptor (TLR). Cell types and stimuli used in each system were as follows:
3C system [HUVEC+(IL-1β, TNFα and IFNγ)]; 4H system [HUVEC+(IL-4 and histamine)]; LPS system [PBMC and HUVEC+LPS (TLR4 ligand)]; SAg system [PBMC and HUVEC+T cell receptor (TCR) ligands]; BT system [CD19+B cells and PBMC+(α-IgM and TCR ligands)]; BF4T system [bronchial epithelial cells and HDFn+(TNFα and IL-4)]; BE3C system [bronchial epithelial cells+(IL-1p, TNFα and IFNγ)]; CASM3C system [coronary artery smooth muscle cells+(IL-1p, TNFα and IFNγ)]; HDF3CGF system [HDFn+(IL-1β, TNFα, IFNγ, EGF, bFGF and PDGF-BB)]; KF3CT system [keratinocytes and HDFn+(IL-1β, TNFα and IFNγ)]; MyoF system [differentiated lung myofibroblasts+(TNFα and TGFβ)]; and IMphg system [HUVEC and M1 macrophages+Zymosan (TLR2 ligand)].
Systems were derived from either single cell types or co-culture systems. Adherent cell types were cultured in 96 or 384-well plates until confluence, followed by the addition of PBMC (SAg and LPS systems). The BT system consisted of CD19+B cells co-cultured with PBMC and stimulated with a BCR activator and low levels of TCR stimulation. Test agents were prepared in DMSO (final concentration <0.1%) and were added 1 hour before stimulation, and remained in culture for 24 hours or as otherwise indicated (48-hrs, MyoF system; 72-hrs, BT system (soluble readouts); 168-hrs, BT system (secreted IgG)). Each plate contained drug controls (e.g., legacy control test agent colchicine at 1.1 μM), negative controls (e.g., non-stimulated conditions) and vehicle controls (e.g., 0.1% DMSO) appropriate for each system. Direct ELISA was used to measure biomarker levels of cell-associated and cell membrane targets. Soluble factors from supernatants were quantified using either HTRF® detection, bead-based multiplex immunoassay or capture ELISA. Overt adverse effects of test agents on cell proliferation and viability (cytotoxicity) were detected by sulforhodamine B (SRB) staining, for adherent cells, and alamarBlue® reduction for cells in suspension. […]

As for `CC[C@@H]1[C@H](F)C(=O)N[C@@H]1COc1nccc2cc(C(N)=O)c(OC)cc12` [PF-06650833, 1-(((2S,3S,4S)-3-Ethyl-4-fluoro-5-oxopyrrolidin-2-yl)methoxy)-7-methoxyisoquinoline-6-carboxamide], the “Inhibition of biomarker readouts in the LPS system” value by setting is: (listed as 1-(((2S,3S,4S)-3-Ethyl-4-fluoro-5-oxopyrrolidin-2-yl)methoxy)-7-methoxyisoquinol) “primarily active across all tested concentrations; also recorded: MCP-1, VCAM-1, E-selectin, IL-8, IL-1a, sTNFa, sPGE2, CD40, CD69, M-CSF, and TF; also recorded: strongly inhibited activation responses”; (listed as 1-(((2S,3S,4S)-3-ethyl-4-fluoro-5-oxopyrrolidin-2-yl)methoxy)-7-methoxyisoquinol) “PGE2, TNFα, IL-1α, and MCP1; also recorded: strongly and selectively inhibited monocyte activation responses; also recorded: MCP-1, VCAM-1, CD40, E-selectin, CD69, IL-8, IL-1α, M-CSF, sPGE2, and sTNFα”.

As for `C[C@@H]1CCN(C(=O)CC#N)C[C@@H]1N(C)c1ncnc2[nH]ccc12` [tofacitinib, 3-((3R,4R)-4-Methyl-3-(methyl(7H-pyrrolo[2,3-d]pyrimidin-4-yl)amino)piperidin-1-yl)-3-oxopropanenitrile], the “Increased biomarker readouts in the LPS system” value is “increased levels of IL-1α, secreted PGE2 and secreted TNFα; also recorded: stimulated production of IL-1α, sPGE2 and sTNFα”. Also, the “Increased biomarker readouts in the LPS system” value (listed as Tofacitinib) was “IL-1α, sPEG2, and sTNFα”.
